The source of these data is patent US10105384B2, “Nucleic acids targeting TCTP for use in the treatment of chemo- or hormone-resistant cancers” (INSTITUT NATIONAL DE LA SANTE ET DE LA RECHERCHE MEDICALE …, priority 2010, dated 2018).

One series concerns PC-3 tumors. As to the kind of experiment: PC-3 tumor growth in vivo in athymic nude mice. The settings on record: PC3 xenografted nude mice, 10th week of treatment. The method, then:
Approximately 3.10^6 PC-3 cells and 10.10^6 LNCaP cells were inoculated subcutaneously with 0.1 mL of Dulbecco's Modified Eagle's Medium (Invitrogen) supplemented with 10% FCS for PC-3 or with 0.1 mL of Matrigel (BD Biosciences Discovery Labware) for LNCaP in the flank region of 4-week-old male athymic nude mice (Charles River, L'Arbresle, France) via a 23-gauge needle. When PC-3 tumors reached 50 mm^3, usually 3 to 4 weeks after injection, mice were randomly selected for treatment with TCTP ASO alone, scrambled ASO alone, TCTP ASO plus docetaxel or scrambled ASO plus docetaxel. Mice bearing LNCaP tumors between 200 and 300 mm^3 in volume were castrated via scrotal approach and randomly assigned to a treatment arm. Mice were treated beginning 1 week after castration with TCTP ASO or control ASO alone and serum PSA measurements were done weekly. For both experiments, each experimental group consisted in 10 mice and the tumor volume measurements were performed once weekly and calculated by the formula length×width×depth×0.5236 (Gleave et al., 1999, Clin Cancer Res 5:2891-8). After randomization, 10 mg/kg TCTP or scrambled ASO was injected intraperitoneally (i.p) once daily for 60 days for ASO monotherapy groups and 90 days for the ASO plus docetaxel groups. A total of 35 mg/kg docetaxel was administrated i.p. three times per week from days 7 to 14. Tumor volume measurements were performed once weekly and calculated by the formula length×width×depth×0.5236 (20). Data points were expressed as average tumor volume levels +/−standard error (SE). All animal procedures were performed in accordance with protocols approved by French laws and the European directives and with appropriate institutional certification.
We next evaluated the effects of TCTP ASO treatment on the growth of PC-3 tumors in vivo (FIG. 8). Male nude mice bearing PC-3 tumors (50 mm^3) were randomly selected for TCTP ASO versus scrambled ASO and 10 mg/kg ASO were administrated once daily by i.p. injection for […]. From days 7 to 14, 30 mg/kg of docetaxel was administrated i.p. 3 days in the week. Mean tumor volume was similar in all groups before therapy.
TCTP inhibition was evaluated in nude mice xenografted with the PC3 CRPC cell line. The animals were treated in an everyday basis and for a period of two months by peritoneal injection of ASO or control TCTP once their tumor volume was 200-300 mm^3. In order to evaluate the additive anticancer activity of ASO TCTP, mice were treated with docetaxel (33 mg/kg) by peritoneal injection three times per week for one week prior to ASO or control TCTP injections. For all experiments, the average tumor volume was measured once a week.
On to “5′-CGTGTAGGTACGGCAGATC-3′ (listed as DNA, chemistry not given here) [ASO scrambled, reference compound]”, for which the tumor volume entry is “over 1500 mm^3”.

For a further series, the system named is PC-3 cells. Nature of the series: Flow cytometry of propidium iodide-stained nuclei (apoptosis, cell cycle), PC-3 cells. Format: cell-based, human. The settings on record: PC-3, docetaxel treatment. The method, then: Flow cytometry of propidium iodide-stained nuclei was performed as described previously (Rocchi et al., 2004, Cancer Res. 64:6595-602). In brief, PC-3 cells were plated at the density of 10^6 cells into 10 cm dishes in DMEM supplemented with 10% FCS. To assess the effect of TCTP inhibition on apoptosis and cell cycle, cells were treated the day after seeding with 5 nM of siRNA TCTP or control and 100 nM of ASO TCTP or scrambled control for 48 h. Cells were then treated with 50 nM of docetaxel. After 24 h, the cells were analyzed for relative DNA content on a dual laser flow cytometer (FACSCalibur, Becton Dickinson Biosciences, Le Pont de Claix, France). Each assay was performed in triplicate.
Flow cytometry was used to quantify the percentage of cells in each cell cycle phase three days after the siRNA treatment. After the treatment of PC-3 cells with 5 nM TCTP siRNA for 1 day, the fraction of cells undergoing apoptosis (sub-G1/G0 fraction) was 25% higher after treatment with 5 nM TCTP siRNA compared with scrambled control siRNA (**, P≤0.01; FIG. 6, upper panel). Using TCTP ASO treatment alone, we found an increase of 75% in sub-G0G1 fraction (***, P≤0.001; FIG. 6, middle and bottom panel), enhanced by the 50 nM docetaxel treatment (90% in sub-G0-G1 fraction, ***, P≤0.001). […] The fraction of PC-3 in S phase was 20 to 40% lower after TCTP siRNA or ASO treatments respectively compared to the scrambled controls (FIG. 6). […] The rate of apoptotic PC-3 cells after TCTP silencing with different ASO concentrations was explored with the Invitrogen countess (FIG. 6 and FIG. 7A). PC-3 cells were treated with 70, 100 or 200 nM of TCTP ASO or control. Cells were harvested 3 days after treatment and […] of trypan blue was added before analysis with Invitrogen Countess. […] Moreover, TCTP has been reported to interact with caspase-3, thereby inhibiting caspase-3 activation (Gnanasekar et al., 2009, Int J Oncol. 34:1241-6). In order to investigate the effect of TCTP silencing on caspase-3 cleavage and activity, PC-3 cells were treated daily with 100 nM TCTP or scrambled ASO for 2 days. Cells were harvested 2 days after and proteins were extracted for western blotting with a caspase-3 antibody that recognizes both full-length and cleaved caspase-3.
PC3 cells were transfected with a TCTP siRNA of SEQ ID NO: 3. Cell proliferation and apoptosis were studied using respectively MTT (3-(4,5-dimethylthiazol-2-yl)-2,5-diphenyl tetrazolium bromure) assay and flow cytometry.
PC3 cells were transfected with a TCTP ASO of SEQ ID NO: 2. Cell proliferation and apoptosis were studied using respectively MTT assay and flow cytometry.
(In general: A flow cytometer gives signals particle by particle.)
Turning to `CC(=O)O[C@@]12CO[C@@H]1C[C@H](O)[C@@]1(C)C(=O)[C@H](O)C3=C(C)[C@@H](OC(=O)[C@H](O)[C@@H](NC(=O)OC(C)(C)C)c4ccccc4)C[C@@](O)([C@@H](OC(=O)c4ccccc4)[C@H]21)C3(C)C` [docetaxel, reference compound], the “fraction of cells in S phase” value is recorded as “without changing the fraction of cells in S phase” and the “fraction of cells undergoing apoptosis” value is reported as “increased the fraction of cells undergoing apoptosis”.

Another series deals with TCTP. As to the kind of experiment: ASO sequences screening: TCTP expression by western blot and/or qRT-PCR. The format is cell-based, human. The settings on record: WB and/or qRT-PCR, PC-3 cells overexpressing TCTP. The protocol:
Western Blot analysis was performed as described previously (Rocchi et al., 2004, Cancer Res. 64:6595-602) with 1:5000 rabbit anti-Hsp27 polyclonal antibody (Assay Designs, Villeurbanne, France), 1:2000 rabbit TCTP polyclonal antibody (Abcam Inc., Cambridge, UK), 1:250 rabbit anti-MSL1v1 polyclonal antibody (Abcam Inc.), 1:500 mouse anti-ubiquitin monoclonal antibody (Santa Cruz Biotechnology Inc., Heidelberg, Germany) or 1:1000 rabbit anti-caspase-3 polyclonal antibody (Cell Signalling Technology Inc., Danvers, USA). Loading levels were normalized using 1:5000 rabbit anti-glyceraldehyde-3-phosphate dehydrogenase polyclonal (Abcam Inc.) or 1:2500 mouse anti-vinculine monoclonal antibodies (Sigma Chemical Co., St Louis, Mo., USA).
The quantitative reverse transcription polymerase chain reaction (qRT-PCR) analysis was done on a LightCycler detection system (Roche Applied Science, Meylan, France). Expression levels of 18S subunit of the ribosome gene were used as an internal control. First strand cDNA was synthesized from 1 μg of total RNA using random hexamers and expanded by reverse transcriptase according to the manufacturer's instructions (ImProm-II Reverse Transcription System, Promega, Charbonniéres-les-Bains, France), subsequently diluted 1:10 with water, and stored at −20° C. until use. TCTP and 18S polymerase chain reaction (PCR) products were detected by quantitative real time PCR (qRT-PCR) using the SYBR Premix Ex Taq (Takara Bio Inc, St Germain en Laye, France) following the manufacturer's instructions. Five microliters of diluted cDNA template were mixed with 10 μl SYBR Premix Ex Taq (including Taq polymerase, reaction buffer, MgCl2, SYBR green I dye, and deoxynucleotide triphosphate mix) and 0.4 μM forward and reverse primers, in a final volume of 20 μl. The following primers were used: TCTP forward 5′-[…]-3′ (SEQ ID NO: 8) and TCTP reverse 5′-[…]-3′; (SEQ ID NO: 9); 18S forward 5′-[…]-3′ (SEQ ID NO: 10) and 18S reverse 5′-[…]-3′ (SEQ ID NO: 11). After an initial Taq activation for 10 seconds at 95° C., Light Cycler PCR was done using 55 cycles with the following cycling conditions: 95° C. for 5 seconds, 58° C. for 7 seconds, and 72° C. for 14 seconds. Each sample was analyzed in duplicate and the experiment was repeated three times. Results were analyzed using RealQuant data analysis software (Roche, Neuilly-sur-seine, France). The results analysis was done with the 2(-Delta Delta C(T)) Method (Livak K J. et al., 2001; Methods. 25:402-8).
In order to find a sequence ASO having an inhibiting effect on TCTP expression, 30 ASO sequences have been designed 26 of which are shown in table 1. Said 30 sequences cover the TCTP mRNA (accession number NM_003295). Using BLAST program, the specificity of said sequences has been studied. Among said 30 sequences, only 15 sequences have been identified as being specific for TCPT mRNA sequence (see table 1). The effect of said ASO sequences on TCTP expression was tested by western blot analysis (WB) and/or by quantitative reverse transcription polymerase chain reaction (qRT-PCR) on PC-3 cells overexpressing TCTP. WB and qRT-PCR were performed as exposed in example 1.
For “ACCAGTGATTACTGTGCTTT (listed as DNA, chemistry not fully specified) [ASO13]”, the “ability to inhibit TCTP expression” value is “strong ability to inhibit TCTP expression”.
On to “AGAAAATCATATATGGGGTC (listed as DNA, chemistry not fully specified) [ASO24]”, for which the “ability to inhibit TCTP expression” value is listed as “strong ability to inhibit TCTP expression”.
Still for that read-out and setting: in the case of “ATGTAATCTTTGATGTACTT (listed as DNA, chemistry not fully specified) [ASO17]” it was “strong ability to inhibit TCTP expression”; in that of “CTTGTAGGCTTCTTTTGTGA (listed as DNA, chemistry not fully specified) [ASO16]”, “strong ability to inhibit TCTP expression”; in that of “GAAATTAGCAAGGATGTGCT (listed as DNA, chemistry not fully specified) [ASO30]”, “strong ability to inhibit TCTP expression”.
In the case of “GTCATAAAAGGTTTTACTCT (listed as DNA, chemistry not fully specified) [ASO28]”, the “ability to inhibit TCTP expression” value is given as “strong ability to inhibit TCTP expression”.
Same read-out and setting: to “GTTTCCCTTTGATTGATTTC (listed as DNA, chemistry not fully specified) [ASO18]” belongs “strong ability to inhibit TCTP expression”; to “TAATCATGATGGCGACTGAA (listed as DNA, chemistry not fully specified) [ASO4]”, “strong ability to inhibit TCTP expression”.
As for “TTAACATTTCTCCATTTCTA (listed as DNA, chemistry not fully specified) [ASO26]”, the “ability to inhibit TCTP expression” value is given as “strong ability to inhibit TCTP expression”.
With “TTCTGGTCTCTGTTCTTCAA (listed as DNA, chemistry not fully specified) [ASO19]”, the “ability to inhibit TCTP expression” value was “strong ability to inhibit TCTP expression”.
